Results published in publication PMC9289130, “Pharmacokinetic Study of Four Major Bioactive Components of Liandan Xiaoyan Formula in Ulcerative Colitis and Control Rats Using UPLC-MS/MS” (Frontiers in Pharmacology, 2022).
Read-outs that look alike come from different tables or passages of the source.

What was measured:
[1] = Pharmacokinetic study in control and DSS-induced UC rats after oral administration of LXF (serum, UPLC-MS/MS); format: in vivo, Sprague-Dawley (SD) rats; conditions: for Shape of the serum concentration-time curve: oral LXF; for AUC(0-inf) / AUC(0-t) / Cmax / Tmax / half-life / MRT inf: male, Sprague-Dawley, rat, serum, po, 3.3 g/kg, oral LXF 3.30 g/kg, rat serum, n = 8, mean ± SD; for MRT inf: read-out: MRT0→∞
Description: Sixteen male Sprague-Dawley (SD) rats (220 ± 10 g) were provided from the Liaoning Changsheng Biotechnology Co., Ltd (Benxi, China; with license No. of SCXK, 2020-0001). The rats were kept in an environment (22 ± 2°C, relative humidity 50 ± 5%) under a 12-h light-dark cycle with a free diet and water for 3 days. All experiments on animals were conducted strictly under the related ethics regulations of the Committee on Use and Care of Animals of Guangzhou University of Chinese Medicine (Guangzhou, China) (No. 712052).
All rats were assigned equally and randomly to the control and model groups. The rats of the model group were free to access 4% DSS for 7 days to induce UC, and rats of the control group were given pure water ([Chen et al., 2020]). Before the pharmacokinetics study, the DSS-induced UC rats (model) were established successfully (Supplementary Material Part B).
After fasting for 12 h, the rats were orally administered LXF at a 3.30 g/kg dose according to Prescription preparation of Chinese medicine, volume 10 ([Lu et al., 2021]). Serum samples (approximately 0.5 ml) were collected from the fosse orbital vein using 1.5 ml polythene tubes before the administration and at 0.083, 0.25, 0.5, 1, 1.5, 2.5, 4, 6, 8, 12, 24, 36, and 48 h after dosing and centrifuged immediately at 3,500 rpm for 15 min. Serum was transferred into clean tubes and stored at −80°C.
100 μl of IS solution (960 ng/ml) was added to a 100 μl serum sample and vortex-mixed for 0.5 min, and then 800 μl of methanol was added and vortex-mixed for 3 min. After centrifugation at 12,000 rpm for 15 min (4°C), the supernatant of the mixture was transferred to another vial and evaporated to dryness with nitrogen purging. The residue was resolved with 100 μ of methanol, vortex-mixed for 1 min, and centrifuged at 12,000 rpm for 10 min (4°C). A 2 μl aliquot of the supernatant was injected into the UPLC-MS/MS system for analysis.
Chromatographic analysis was performed using UPLC-MS/MS, utilizing a Finnigan Surveyor auto-sampler and a Finnigan Surveyor LC pump combined with a triple quadrupole TSQ Quantum mass spectrometer electrospray ionization (ESI) interface (Thermo Fisher, Palo Alto, CA). The chromatographic separation was performed on the Waters Acquity UPLC BEH C18 column (2.1 mm × 100 mm; 1.7 µm). The mobile phase consisted of acetonitrile (A) and 0.1% formic acid (B) with a gradient elution program (0-5 min, 20% A-35% A; 5-6 min, 35% A-100% A; 6–8min, 100% A; 8–8.5 min, 100% A-20% A; 8.5–10.5 min, 20% A) at a flow rate of 0.4 ml/min. The column temperature was maintained at 40°C throughout the analysis. The injection volume was 2 μl.
Quantification was performed using multiple reaction monitoring (MRM) in the positive ionization mode, and the optimized MRM parameters of the four analytes and IS are listed in Table 1. The MRM transition, retention time (RT), and collision energy (CE) values were based on Thermo Foundation 2.0. Curtain gas pressure at 35 psi, ion source gas 1 and gas 2 at 55 psi, ion spray voltage at 5500 V, and temperature at 500°C.
Non-compartment model pharmacokinetic parameters, including the time to reach the maximum serum concentration (Tmax), the maximum serum concentration (Cmax), the elimination half-time (T1/2), the area under the serum concentration-time curve (AUC), and mean residence time (MRT), were calculated by DAS (version 3.2.8, Chinese Pharmacological Association, Anhui, China). The difference between the control and model groups was statistically analyzed using SPSS 26.0 (IBM Company, Chicago). All data in this study were subjected to a one-way analysis of variance (ANOVA) and then expressed by mean ± standard deviation (SD). LSD t-test was applied when the homogeneity of variance assumptions was satisfied; otherwise, Dunnett’s t-test was used. A p < 0.05 was considered statistically significant.

[2] = Stability test of QC samples in rat serum; format: in vitro ADME; conditions: n = 6
Description: Quality control (QC) samples at low, middle and high concentrations (61.50, 384.38, and 4,000.00 ng/ml for andrographolide; 24.00, 150.00, and 1,500.00 ng/ml for dehydroandrographolide; 6.91, 43.20, and 450.00 ng/ml for 1-methoxicabony-β-carboline; 6.30, 39.38, and 400.00 ng/ml for 4-methoxy-5-hydroxy-canthin-6-one) were also prepared by the same procedures.
Recovery was determined at three QC levels and calculated by comparing the compound standard peak areas obtained from extracted samples with post-extracted samples spiked with the compound. Matrix effects were calculated by matching spiking post-extracted blank serum samples with corresponding standard clean solutions at three concentrations of QC samples.

Structure (SMILES): C=C1CC[C@@H]2[C@](C)(CO)[C@H](O)CC[C@@]2(C)[C@H]1C/C=C1\C=COC1=O [dehydroandrographolide]
- Shape of the serum concentration-time curve ([1]; UC group): double peaks
- Shape of the serum concentration-time curve ([1]; control group): double peaks
- AUC(0-inf) ([1]; UC group (4% DSS for 7 days)): 4790 ng·h/mL
- AUC(0-t) ([1]; UC group (4% DSS for 7 days)): 4690 ng·h/mL
- Cmax ([1]; UC group (4% DSS for 7 days)): 1150 ng/mL
- Tmax ([1]; UC group (4% DSS for 7 days)): 0.38 ± 0.13 h
- half-life ([1]; UC group (4% DSS for 7 days)): 2.86 ± 2.01 h
- MRT inf ([1]; UC group (4% DSS for 7 days)): 5.08 ± 1.53 h
- AUC(0-inf) ([1]; control group): 2360 ng·h/mL
- AUC(0-t) ([1]; control group): 2330 ng·h/mL
- Cmax ([1]; control group): 892 ± 148 ng/mL
- Tmax ([1]; control group): 0.28 ± 0.09 h
- half-life ([1]; control group): 2.28 ± 1.69 h
- MRT inf ([1]; control group): 5.04 ± 1.96 h
- Stability, mean concentration found ([2]; 4°C for 24 h, high QC (nominal 4,000.00 / 1,500.00 / 450.00 / 400.00 ng/ml for compounds 1-4)): 1,421.52 ± 61.75 ng/mL
- Stability, mean concentration found ([2]; 4°C for 24 h, low QC (nominal 61.50 / 24.00 / 6.91 / 6.30 ng/ml for compounds 1-4)): 25.71 ± 1.69 ng/mL
- Stability, mean concentration found ([2]; 4°C for 24 h, middle QC (nominal 384.38 / 150.00 / 43.20 / 39.38 ng/ml for compounds 1-4)): 156.59 ± 14.58 ng/mL
- Stability, mean concentration found ([2]; 25°C for 12 h, high QC (nominal 4,000.00 / 1,500.00 / 450.00 / 400.00 ng/ml for compounds 1-4)): 1,439.13 ± 52.46 ng/ml
- Stability, mean concentration found ([2]; 25°C for 12 h, low QC (nominal 61.50 / 24.00 / 6.91 / 6.30 ng/ml for compounds 1-4)): 23.51 ± 0.69 ng/mL
- Stability, mean concentration found ([2]; 25°C for 12 h, middle QC (nominal 384.38 / 150.00 / 43.20 / 39.38 ng/ml for compounds 1-4)): 153.93 ± 10.00 ng/mL
- Stability, mean concentration found ([2]; three freeze-thaw, high QC (nominal 4,000.00 / 1,500.00 / 450.00 / 400.00 ng/ml for compounds 1-4)): 1,428.09 ± 67.73 ng/mL
- Stability, mean concentration found ([2]; three freeze-thaw, low QC (nominal 61.50 / 24.00 / 6.91 / 6.30 ng/ml for compounds 1-4)): 21.20 ± 2.30 ng/mL
- Stability, mean concentration found ([2]; three freeze-thaw, middle QC (nominal 384.38 / 150.00 / 43.20 / 39.38 ng/ml for compounds 1-4)): 143.60 ± 9.61 ng/mL
- Stability, mean concentration found ([2]; −80°C for 30 days, high QC (nominal 4,000.00 / 1,500.00 / 450.00 / 400.00 ng/ml for compounds 1-4)): 1,419.63 ± 51.60 ng/ml
- Stability, mean concentration found ([2]; −80°C for 30 days, low QC (nominal 61.50 / 24.00 / 6.91 / 6.30 ng/ml for compounds 1-4)): 22.46 ± 2.57 ng/mL
- Stability, mean concentration found ([2]; −80°C for 30 days, middle QC (nominal 384.38 / 150.00 / 43.20 / 39.38 ng/ml for compounds 1-4)): 151.06 ± 3.31 ng/mL
